Test results from US8394785B2, “Methods for the treatment and amelioration of urticaria” (Jado Technologies GmbH, priority 2005, dated 2013).

Assays:
[1] = tested on: primary human mast cells (human skin); test: Histamine release assay, Substance P induced, primary human mast cells; format: cell-based; details: dose-dependent; not dependent on pre-incubation time
Experimental: Tissue mast cells were isolated from human skin obtained during cosmetic surgery. Use of human skin was conducted according to the Declaration of Helsinki Principles and was approved by the Institutional Review Board of the Charité—Universitätsmedizin Berlin. For isolation of mast cells, the epidermis was enzymatically detached by an overnight incubation at 4° C. with dispase at a concentration of 1 mg/ml. The remaining dermis was dispersed by incubation with a mix of collagenase I and hyaluronidase for 1 h at 37° C. Dispersion was repeated three times, and the collected cells were washed. […] The final mast cell purity was >90% as measured by Toluidin blue staining. The viability of mast cells was >95% as assessed by Trypan blue staining (Grützkau et al 2000, Artuc et al 2002). The quantification of histamine levels was achieved using an automated histamine-analyser system (Firm Borgwelt Technik). The wavelength of the excitation was 355-360 nm and the emission wavelength of fluorescence measurement was 450-460 nm. The intensity of fluorescence was directly proportional to the concentration of histamine in the samples. The amount of released histamine was calculated according to the following formula: net histamine release=(release−blank)×(100/complete). […]

[2] = tested on: C57 mouse mast cell line transfected with the alpha chain of the human high affinity IgE receptor; test: Histamine release assay, anti-human-IgE induced, C57 cells; format: cell-based; details: anti-human-IgE stimulation; 60 min pre-incubation
Experimental: Stock solution of miltefosine (5 mM) was prepared in DMSO and stored at −20° C. For preparation of the working concentration (2 mM), the stock solution was diluted with PAG-CM (PAG-CM=PIPES Albumin Glucose with Calcium und Magnesium). All other dilutions of miltefosine were prepared with 40% DMSO in PAG-CM buffer. The quantification of histamine levels was achieved using an automated histamine-analyser system (Firm Borgwelt Technik). The wavelength of the excitation was 355-360 nm and the emission wavelength of fluorescence measurement was 450-460 nm. The intensity of fluorescence was directly proportional to the concentration of histamine in the samples. The amount of released histamine was calculated according to the following formula: net histamine release=(release−blank)×(100/complete). “Release”, in this context, was defined as the supernatant of stimulated cells, e.g. by anti-IgE, whereas supernatants of non stimulated cells, i.e. spontaneous release, was termed “blank”. “Complete” stands for the total histamine content of mast cells (after lysing with perchloric acid). The histamine release assays were performed in the PAG-CM buffer system. The numbers of mast cells or basophils in each sample used for histamine release assays was approximately 1×10^4 cells. For stimulation, cells were exposed to anti-IgE, Substance P, Ca-ionophore, or C5a. […]

CCCCCCCCCCCCCCCCOP(=O)([O-])OCC[N+](C)(C)C [Compound 3, 1-hexadecylphosphoryl-choline]
inhibition of Substance P induced histamine release [1]: 45%
maximal inhibition of histamine release [2]: 40%
